Target: T1, human LPA1 (Homo sapiens, UniProt Q92633)
T1 construct: expressed in transfected cells; host or cells: Chinese hamster ovary (CHO) cells
Test: LPA1 functional antagonist assay (LPA-induced calcium flux in CHO cells overexpressing human LPA1)
Format: cell-based
Settings: inhibition of calcium flux induced by 10 nM LPA, CHO cells overexpressing human LPA1; read-out: hLPA1 IC50
How it was run: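 CHO cells overexpressing human LPA1, dye-loaded 30 min at 37 °C, then given compound (0.08 nM–5 μM final, 0.5% DMSO) in HBSS/20 mM HEPES/0.1% fatty-acid-free BSA for 20 min at room temperature before 10 nM LPA. IC50 as 50% inhibition of LPA-evoked calcium flux, 4-parameter logistic fit.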

T1 sequence (Q92633 whole entry): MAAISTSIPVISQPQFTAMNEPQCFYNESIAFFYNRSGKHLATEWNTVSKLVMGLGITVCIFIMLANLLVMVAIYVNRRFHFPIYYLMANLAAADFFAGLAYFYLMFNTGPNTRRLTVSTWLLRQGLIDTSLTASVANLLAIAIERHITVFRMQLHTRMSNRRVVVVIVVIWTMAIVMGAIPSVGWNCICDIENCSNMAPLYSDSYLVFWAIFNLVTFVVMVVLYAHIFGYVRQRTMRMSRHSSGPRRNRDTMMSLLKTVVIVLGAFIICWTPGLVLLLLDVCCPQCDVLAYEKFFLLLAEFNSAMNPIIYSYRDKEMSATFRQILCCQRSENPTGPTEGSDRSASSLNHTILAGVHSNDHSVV

Structure (SMILES)	IC50
Cc1nc(-c2nnn(C)c2CNc2noc(C3CCC3)n2)ccc1O[C@H]1CCC[C@H](C(=O)O)C1 [Example 175]	20 nM
Cc1nc(-c2nnn(C)c2CNc2noc(C3CCCC3)n2)ccc1O[C@H]1CCC[C@H](C(=O)O)C1 [Example 176]	25.4 nM
Cc1nc(-c2nnn(C)c2CNc2noc(CCCC(F)(F)F)n2)ccc1O[C@H]1CCC[C@H](C(=O)O)C1 [Example 177]	9.1 nM
CCC(C)c1nc(NCc2c(-c3ccc(O[C@H]4CCC[C@H](C(=O)O)C4)c(C)n3)nnn2C)no1 (stereo partly shown) [Example 178]	27.4 nM
Cc1nc(-c2nnn(C)c2CNc2noc(CCC(C)(C)F)n2)ccc1O[C@H]1CCC[C@H](C(=O)O)C1 [Example 179]	43.5 nM
Cc1nc(-c2nnn(C)c2CNc2noc(C3CC3C)n2)ccc1O[C@H]1CCC[C@H](C(=O)O)C1 (stereo partly shown) [Example 180]	42.1 nM
Cc1nc(-c2nnn(C)c2CNc2noc(C3CC3(C)C)n2)ccc1O[C@H]1CCC[C@H](C(=O)O)C1 (stereo partly shown) [Example 181]	24.1 nM
Cc1nc(-c2nnn(C)c2CNc2noc(C3CC3(C)C)n2)ccc1O[C@H]1CCC[C@H](C(=O)O)C1 (stereo partly shown) [Example 182]	17 nM
Cc1nc(-c2nnn(C)c2CNc2noc(CCCCF)n2)ccc1O[C@H]1CCC[C@H](C(=O)O)C1 [Example 183]	32 nM
Cc1nc(-c2nnn(C)c2CNc2noc(CCCF)n2)ccc1O[C@H]1CCC[C@H](C(=O)O)C1 [Example 184]	74 nM
Cc1nc(-c2nnn(C)c2CNc2noc(C(C)C3CC3)n2)ccc1O[C@H]1CCC[C@H](C(=O)O)C1 (stereo partly shown) [Example 185]	24 nM
Cc1nc(-c2nnn(C)c2CNc2noc(C3CCC(F)(F)C3)n2)ccc1O[C@H]1CCC[C@H](C(=O)O)C1 (stereo partly shown) [Example 186]	79 nM
Cc1nc(-c2nnn(C)c2CNc2noc(CCC3(C)CC3)n2)ccc1O[C@H]1CCC[C@H](C(=O)O)C1 [Example 187]	31 nM
Cc1nc(-c2nnn(C)c2CNc2noc(CCC(C)(F)F)n2)ccc1O[C@H]1CCC[C@H](C(=O)O)C1 [Example 188]	42 nM
Cc1nc(-c2nnn(C)c2CNc2noc(C3CC(F)C3)n2)ccc1O[C@H]1CCC[C@H](C(=O)O)C1 (stereo partly shown) [Example 189]	74 nM
Cc1nc(-c2nnn(C)c2CNc2noc(C3CC(F)C3)n2)ccc1O[C@H]1CCC[C@H](C(=O)O)C1 (stereo partly shown) [Example 190]	55 nM
Cc1nc(-c2nnn(C)c2CNc2noc([C@H]3C[C@@](C)(F)C3)n2)ccc1O[C@H]1CCC[C@H](C(=O)O)C1 [Example 191]	112 nM
Cc1nc(-c2nnn(C)c2CNc2noc([C@H]3C[C@](C)(F)C3)n2)ccc1O[C@H]1CCC[C@H](C(=O)O)C1 [Example 192]	52 nM
Cc1nc(-c2nnn(C)c2CNc2noc(C(C)C3CC3)n2)ccc1O[C@H]1CCC[C@H](C(=O)O)C1 (stereo partly shown) [Example 193]	33 nM
Cc1nc(-c2nnn(C)c2CNc2noc(C(C)C3CC3)n2)ccc1O[C@H]1CCC[C@H](C(=O)O)C1 (stereo partly shown) [Example 194]	25 nM
Cc1nc(-c2nnn(C)c2CNc2noc(CC3CC3(F)F)n2)ccc1O[C@H]1CCC[C@H](C(=O)O)C1 (stereo partly shown) [Example 195]	25 nM
Cc1nc(-c2nnn(C)c2CNc2noc(CC3CC3(F)F)n2)ccc1O[C@H]1CCC[C@H](C(=O)O)C1 (stereo partly shown) [Example 196]	28 nM

More lines, now with the values ahead:

IC50	Structure (SMILES)
42 nM	CCCC(C)(C)c1nc(NCc2c(-c3ccc(O[C@H]4CCC[C@H](C(=O)O)C4)c(C)n3)nnn2C)no1 [Example 197]
28 nM	Cc1nc(-c2nnn(C)c2CNc2noc(C3CC(C)C3)n2)ccc1O[C@H]1CCC[C@H](C(=O)O)C1 (stereo partly shown) [Example 198]
33 nM	Cc1nc(-c2nnn(C)c2CNc2noc(C3CC(C)C3)n2)ccc1O[C@H]1CCC[C@H](C(=O)O)C1 (stereo partly shown) [Example 199]
31 nM	Cc1nc(-c2nnn(C)c2CNc2noc(CCC(C)F)n2)ccc1O[C@H]1CCC[C@H](C(=O)O)C1 (stereo partly shown) [Example 200]
32 nM	Cc1nc(-c2nnn(C)c2CNc2noc(CCC(C)F)n2)ccc1O[C@H]1CCC[C@H](C(=O)O)C1 (stereo partly shown) [Example 201]
8.4 nM	C=CCC(C)c1nc(NCc2c(-c3ccc(O[C@H]4CCC[C@H](C(=O)O)C4)c(C)n3)nnn2C)no1 (stereo partly shown) [Example 202]
11.5 nM	C=C1CC(c2nc(NCc3c(-c4ccc(O[C@H]5CCC[C@H](C(=O)O)C5)c(C)n4)nnn3C)no2)C1 [Example 203]
18.1 nM	Cc1nc(-c2nnn(C)c2CNc2noc(C3CC34CC4)n2)ccc1O[C@H]1CCC[C@H](C(=O)O)C1 (stereo partly shown) [Example 204]
24 nM	Cc1nc(-c2nnn(C)c2CNc2noc(C3CC34CC4)n2)ccc1O[C@H]1CCC[C@H](C(=O)O)C1 (stereo partly shown) [Example 205]
1090 nM	Cc1nc(-c2nnn(C)c2Cn2ncnc2C2CC2)ccc1O[C@H]1CCC[C@H](C(=O)O)C1 [Example 206]
213 nM	Cc1nc(-c2nnn(C)c2Cn2ncnc2-c2ccccc2)ccc1O[C@H]1CCC[C@H](C(=O)O)C1 [Example 207, (1S,3S)-3-((2-Methyl-6-(1-methyl-5-((5-phenyl-1H-1,2,4-triazol-1-yl)methyl)-1H-1,2,3-triazol-4-yl)pyridin-3-yl)oxy)cyclohexane-1-carboxylic acid]
370 nM	Cc1nc(-c2nnn(C)c2Cn2cnc(-c3ccccc3)n2)ccc1O[C@H]1CCC[C@H](C(=O)O)C1 [Example 208, (1S,3S)-3-((2-Methyl-6-(1-methyl-5-((3-phenyl-1H-1,2,4-triazol-1-yl)methyl)-1H-1,2,3-triazol-4-yl)pyridin-3-yl)oxy)cyclohexane-1-carboxylic acid]
2080 nM	Cc1nc(-c2nnn(C)c2Cn2cnnc2CC2CC2)ccc1O[C@H]1CCC[C@H](C(=O)O)C1 [Example 209]
191 nM	Cc1nc(-c2nnn(C)c2Cn2cnc(CC3CC3)n2)ccc1O[C@H]1CCC[C@H](C(=O)O)C1 [Example 210]
45 nM	Cc1nc(-c2nnn(C)c2CNc2ncn(-c3cc(F)cc(F)c3)n2)ccc1O[C@H]1CCC[C@H](C(=O)O)C1 [Example 211, (1 S,3 S)-3-((6-(5-(((1-(3,5-difluorophenyl)-1H-1,2,4-triazol-3-yl)amino)methyl)-1-methyl-1H-1,2,3-triazol-4-yl)-2-methylpyridin-3-yl)oxy)cyclohexane-1-carboxylic acid]
34 nM	Cc1nc(-c2nnn(C)c2CNc2noc(COC3CC3)n2)ccc1O[C@H]1CCC[C@H](C(=O)O)C1 [Example 212, (1 S,3 S)-3-((6-(5-(((5-(cyclopropoxymethyl)-1,2,4-oxadiazol-3-yl)amino)methyl)-1-methyl-1H-1,2,3-triazol-4-yl)-2-methylpyridin-3-yl)oxy)cyclohexane-1-carboxylic acid]
98 nM	CCOCCc1nc(NCc2c(-c3ccc(O[C@H]4CCC[C@H](C(=O)O)C4)c(C)n3)nnn2C)no1 [Example 213, (1S,3S)-3-((6-(5-(((5-(2-ethoxy-ethyl)-1,2,4-oxadiazol-3-yl)amino)methyl)-1-methyl-1H-1,2,3-triazol-4-yl)-2-methylpyridin-3-yl)oxy)cyclohexane-1-carboxylic acid]
246 nM	Cc1nc(-c2nnn(C)c2CNc2noc(CCOC(C)C)n2)ccc1O[C@H]1CCC[C@H](C(=O)O)C1 [Example 214, (1S,3S)-3-((6-(5-(((5-(2-isopro-poxyethyl)-1,2,4-oxadiazol-3-yl)amino)methyl)-1-methyl-1H-1,2,3-triazol-4-yl)-2-methylpyridin-3-yl)oxy)cyclohexane-1-carboxylic acid]

Source: patent US11319315B2, “Cyclohexyl acid triazole azoles as LPA antagonists” (BRISTOL-MYERS SQUIBB COMPANY, priority 2017, dated 2022)
